US20200085767A1, “Methods for Treating Hydrocephalus” (Indian University Research and Technology Corporation, priority 2016, published 2020)
“Also recorded” adds a separate entry of the source.

System: PCP-R choroid plexus cell line
Experiment: Ussing chamber electrophysiology of TRPV4 agonist-stimulated transepithelial ion transport (short-circuit current and conductance)
Type: cell-based, porcine
Text: In order to follow transepithelial ion movement, Ussing chamber electrophysiological techniques were used. The choroid plexus model is a high resistance, continuous cell line of porcine choroid plexus epithelial cells grown on permeable supports. […] The cells were mounted on electrophysiological apparatuses for analysis of transepithelial ion flux in response to inhibitory or stimulatory reagents. Filters were excised, mounted in a Ussing chamber, and connected to a DVC-1000 Voltage/Current Clamp with voltage and current electrodes on either side of the membrane. Each half of the chamber contained a tapered fluid compartment with fittings for voltage electrodes (close to the epithelial membrane) and current electrodes (at the opposite end of the chamber). The fluid chamber was water jacketed to maintain a constant temperature (37° C.). The cells were bathed in serum-free media. Media were circulated in the chambers and oxygenated by means of a 5% CO2/O2 gas lift. The spontaneous transepithelial potential difference was measured and clamped to zero, and the resultant short-circuit (SCC) was monitored continuously as a measurement of net transepithelial ion flux. As per convention, a negative deflection in the SCC was either cation secretion (from blood to CSF) or anion absorption (CSF to blood). Transepithelial resistance (TER) was recorded every 200 seconds throughout each experiment by applying a 2 mV pulse and using the resulting deflection in the SCC to calculate the TER by Ohm's law. Conductances were calculated from the change in current during the voltages pulses. Specifically conductance is the change in current divided by the magnitude of the imposed voltage. In all cases, the graphs shown in each panel represent a series of control and experimental cultures that were grown and analyzed in parallel.
After the basal current was stabilized, effectors were added to one or both sides of polarized monolayer as dictated by the physiological situation.
Further, conductance is a measurement of the permeability of the tissue to water and electrolytes. So, as the conductance goes up, one would expect greater ion and fluid permeability across the choroid plexus which is a barrier epithelium.
The same methods were used in this Example as in Example 1.

SMILES | change in conductance (agonist alone) | transepithelial ion transport response measured as short-circuit current (SCC) (agonist alone, added at time 0 minutes) | GSK1016790A-stimulated transepithelial potassium secretion in the direction of the CSF (short-circuit current, SCC) (cells pre-treated from time -10 to 0 minutes, GSK1016790A added at 0 minutes) | TRPV4 agonist-induced increase in conductance (permeability) (pre-treatment before the TRPV4 agonist GSK1016790A)
CC(C)C[C@H](NC(=O)c1cc2ccccc2s1)C(=O)N1CCN(C(=O)[C@H](CO)NS(=O)(=O)c2ccc(Cl)cc2Cl)CC1 [GSK1016790A] | large increase in the conductance | consistent with cation secretion into the CSF |  | 
NCCC(Oc1ccc(C(F)(F)F)cc1)c1ccccc1 (stereo not shown) [norfluoxetine] |  |  | effective at inhibiting the TRPV4-stimulated ion transport; also recorded: completely inhibited | blocked this increased permeability
